PMC3984012 (Journal of Acquired Immune Deficiency Syndromes (1999), 2014)

Columns and labels:
[1] = Plasma BOC and TVR pharmacokinetics when coadministered with MVC; type: in vivo, human; conditions: coadministered with MVC 150 mg BID
[2] = cited from earlier work; for AUC8 previously reported / C8 previously reported: dosed alone, range; for Mean historical minimum plasma concentration (Cmin): historical data
OATP1B1 = conditions: read-out: OATP1B1 IC50; in vitro data; cited from earlier work
CYP3A = conditions: oral coadministration of midazolam; cited from earlier work
P-gp = conditions: cited from earlier work
CYP3A and OATP1B1 = conditions: coadministered with atorvastatin; cited from earlier work
HIV-1 = conditions: cited from earlier work

Row | Compound | Exposures when coadministered with MVC compared with historical data [1] | AUC8 previously reported [2] [ng·h/mL] | C8 previously reported [2] [ng/mL] | Mean historical minimum plasma concentration (Cmin) [2] [ng/mL] | IC50 (OATP1B1) [µM] | Increase in AUC of midazolam (CYP3A) [%] | Increase in AUC of digoxin (P-gp) [%] | Increase in AUC (exposure) of atorvastatin (CYP3A and OATP1B1) [fold] | Cavg exposure at which near maximal virologic efficacy is achieved (HIV-1)
1 | CCC[C@H](NC(=O)[C@@H]1[C@H]2CCC[C@H]2CN1C(=O)[C@@H](NC(=O)[C@@H](NC(=O)c1cnccn1)C1CCCCC1)C(C)(C)C)C(=O)C(=O)NC1CC1 [TVR, Telaprevir] | consistent with historical data | 18157 to 22300 | 1505 to 2030 | 1802 | 2.2 | 796 | 85 | 7.88 | 
2 | CC(C)(C)NC(=O)N[C@H](C(=O)N1C[C@H]2[C@@H]([C@H]1C(=O)NC(CC1CCC1)C(=O)C(N)=O)C2(C)C)C(C)(C)C (some centres unmarked) [BOC, Boceprevir] | consistent with historical data | 4601 to 7070 | 88.5 to 111 | 102 | 18 | 430 | 19 | 2.30 | 
3 | Maraviroc [MVC] |  |  |  |  |  |  |  |  | 75–100 ng/mL
